Reference: publication PMC6555645 (Angewandte Chemie (International ed. in English), 2019)

Tests used:
Tar14 = target: T1, Tar14 (Saccharomonospora piscinae, UniProt W5VG40); assay: in vitro chlorination assay; assay type: biochemical; details: with flavin and a flavin reductase system; chloride
T1 sequence (W5VG40 1-534): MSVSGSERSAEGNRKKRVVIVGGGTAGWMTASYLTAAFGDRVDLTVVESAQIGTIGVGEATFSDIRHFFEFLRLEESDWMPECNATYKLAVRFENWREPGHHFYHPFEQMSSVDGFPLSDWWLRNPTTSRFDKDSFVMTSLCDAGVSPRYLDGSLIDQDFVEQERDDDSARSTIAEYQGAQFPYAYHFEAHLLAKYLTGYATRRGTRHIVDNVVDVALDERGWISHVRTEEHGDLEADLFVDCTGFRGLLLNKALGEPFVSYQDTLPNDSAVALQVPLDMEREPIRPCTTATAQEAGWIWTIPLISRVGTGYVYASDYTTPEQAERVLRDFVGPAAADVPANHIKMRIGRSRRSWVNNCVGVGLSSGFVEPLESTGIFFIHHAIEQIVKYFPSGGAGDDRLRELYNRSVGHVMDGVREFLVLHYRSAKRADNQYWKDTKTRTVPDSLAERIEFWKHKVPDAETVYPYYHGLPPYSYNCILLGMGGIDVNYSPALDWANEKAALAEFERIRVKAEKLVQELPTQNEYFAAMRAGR

Tar13 = target: T2, Tar13 (Saccharomonospora piscinae, UniProt W5VMS0); assay: in vitro dioxygenase assay; assay type: biochemical; details: heme-dependent TDO; O2
T2 sequence (W5VMS0 1-236): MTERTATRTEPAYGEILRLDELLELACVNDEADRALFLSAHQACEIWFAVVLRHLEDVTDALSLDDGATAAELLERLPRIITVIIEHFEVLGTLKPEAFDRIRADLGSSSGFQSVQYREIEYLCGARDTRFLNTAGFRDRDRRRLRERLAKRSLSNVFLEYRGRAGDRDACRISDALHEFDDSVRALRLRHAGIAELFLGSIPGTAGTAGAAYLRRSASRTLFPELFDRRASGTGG

SMILES	Km (Tar14) [µM]	Km (Tar13) [µM]
N[C@@H](Cc1c[nH]c2ccccc12)C(=O)O [compound 4, L-Trp]	12	
N[C@@H](Cc1c[nH]c2cc(Cl)ccc12)C(=O)O [compound 7, L-6-Cl-Trp]		112
